According to patent US20200016200A1, “MODULATING CYTOTOXIC CELL LYTIC GRANULE POSITIONING TO PROMOTE DIFFUSE KILLING IN CELLULAR THERAPIES” (Baylor College of Medicine, priority 2016, published 2020):

Test system: eNK cells
Assay: Live cell confocal microscopy (UGATm) of antibody-dependent cellular cytotoxicity
Type: cell-based, human
Settings: eNK aggregated with uncoated and RTX-coated Raji cells, no LFA-1 blockade
Method: FIGS. 9A-9D. LFA-1 blockade increases bystander killing. Live cell confocal microscopy of antibody-dependent cellular cytotoxicity by eNK cells pre-treated with murine IgG1 mAb control (9A) or LFA-1 blocking mAb (clone TS1/22, 9B). Green, RTX-coated Raji cells (NK-inciting targets); yellow, uncoated Raji cells (bystanders); red, LysoTracker Red (lytic granules); blue, SYTOX Blue viability dye. NK cells were mixed with the target cells immediately before the imaging process and imaged every 4 min for 4 hours. […] Data represent combined results from three healthy donors. Standard 4-hour 51Cr cytotoxicity assay of NK cells treated with LFA-1-blocking mAb or murine IgG control (9D). Each dot represents an individual healthy donor.
To apply this concept in the context of physiologic antibody-dependent cell mediated cytotoxicity (ADCC) a human therapeutic monoclonal antibody, Rituximab (RTX) was used along with NK cell resistant Raji cells that naturally express the antigen recognized by RTX. […]
YTS-CD16 and eNK cells were incubated with 5 μM LysoTracker Red DND-99 (Thermo Fisher) for 30 min at 37° C. and washed. […] Emission was detected with HyD detectors, and images were collected in a single z-plane at one frame every 4 or 30 min for 120 min. […]

“Rituximab: human therapeutic monoclonal antibody against CD20, used to coat Raji cells for ADCC” was tested, and the “killing of RTX-coated versus uncoated Raji cells” value was “preferential killing of the RTX-coated Raji cells”.
